Data reported in patent US6500610B1, “Methods for identifying compounds for inhibiting of neoplastic lesions, and pharmaceutical compositions containing such compounds” (Cell Pathways, INC, priority 1997, dated 2002).
Where a name gives a salt, the structure may show the parent alone. Read-outs that look alike come from different tables or passages of the source.

Assays:
rats [1] = settings: rat, in vivo
patients = assay: Single, escalating dose human clinical safety study; type: in vivo; settings: oral
[2] = Acute and seven-dose toxicity in dogs; settings: both, dog, in vivo, po, 1000 mg/kg
[3] = Acute toxicity study in rats; settings: rat, in vivo
HCT-15 (Colon) = assay: Neutral red cytotoxicity assay, HCT-15; type: cell-based, human; settings: free base, five days
Protocol: (§1) Compound I's activity is not confined to activity against colon cancer cell lines or animal models of colon cancer. It has a broad range of anti-neoplastic effects in various neoplastic cell lines. Various types of human cancer cell lines were propagated under sterile conditions in RPMI 1640 medium with 10% fetal bovine serum, 2 mM L-glutamine and sodium bicarbonate. To determine growth inhibitory effects of Compound I, cells were seeded in 96-well plates at a density of 1000 cells per well. Twenty-four hours after plating, the cells were dosed with various concentrations of the free base of Compound I solubilized in DMSO (final concentration 0.1%). The effect of the drug on tumor cell growth was determined using the neutral red cytotoxicity assay following five days of continuous treatment. Neutral red is a dye that is selectively taken up by viable cells by an ATP-dependent transport mechanism.

UISO-BCA-1 (Breast) = assay: Neutral red cytotoxicity assay, UISO-BCA-1; type: cell-based, human; settings: free base, five days
Protocol: as §1

rats [4] = assay: Seven-day dose-range finding study in rats; type: in vivo, rat; settings: seven days
rats [5] = assay: 28-day study in rats; type: in vivo, rat
[6] = test system: LNCaP prostate tumor cell line; assay: Histone-associated DNA fragmentation in LNCaP; type: cell-based; settings: 50 μM free base, up to 4 days
Protocol: (§2) The androgen-sensitive prostate tumor cell line, LNCaP (from ATCC (Rockville, Md.)) was propogated under standard conditions using […] medium containing 5% fetal calve serum and 2 mM glutamine. Primary prostate epithelial cell cultures (PrEC) derived from normal prostate (from Clonetics Inc. (San Diego, Calif.)) were grown under the same conditions as the tumor cell line except a serum-free medium optimized for the growth of such cultures was used (Clonetics Inc). For the experiments, LNCaP or PrEC cells were seeded in 96 well plates at a density of 10,000 cells per well. After 24 hours, the cells were treated with either vehicle (0.1% DMSO) or 50 μM Compound I (free base) solubilized in DMSO. After various drug treatment times (4, 24, 48, 72, or 99 hours) the cells were lysed and processed for measurement of histone-associated DNA as an indicator of apoptotic cell death (see, Piazza et al., Cancer Research 57: 2452-2459, 1997).

dogs = settings: dog, in vivo
HT-29 (Colon) = assay: Neutral red cytotoxicity assay, HT-29; type: cell-based, human; settings: free base, five days
Protocol: as §1

Colo 205 (Colon) = assay: Neutral red cytotoxicity assay, Colo 205; type: cell-based, human; settings: free base, five days
Protocol: as §1

[7] = test system: azoxymethane-induced aberrant crypt foci in male Fisher 344 rats; assay: Azoxymethane-induced aberrant crypt foci (ACF) model; type: in vivo; settings: in the rat chow
Protocol: The growth inhibition IC50 value obtained for Compound I was 0.7 μM in the SW-480 cell line. […] This established rodent model of azoxymethane (“AOM”)-induced carcinogenesis was used to assess the effects of Compound I (free base and salt) on colon cancer development in vivo. ACF are precursors to colonic tumors, and ACF inhibition is predictive of chemo-preventive efficacy.
In the rats in this experiment, ACF initiation was achieved by two consecutive weekly injections of the carcinogen. Compound I was administered one week prior to ACF initiation and for the duration of the experiment. ACFs were scored after 5 weeks of treatment. Compound I was administered orally to male Fisher 344 rats in the rat chow. Daily food consumption (mg/kg body weight) varied over the course of the study, and therefore Compound I dose was expressed a grams per kg of diet to provide a basis of comparison between doses. […] The experimental groups gained less weight than the controls, which was indicative of bioavailability. However, the weight differences were less than 10% and not considered to affect ACF formation.
The free base of Compound I inhibited ACF formation as measured by a reduction of crypts per colon. […]

DU145 (Prostate) = assay: Neutral red cytotoxicity assay, DU145; type: cell-based, human; settings: free base, five days
Protocol: as §1

NCI-H460 (Lung) = assay: Neutral red cytotoxicity assay, NCI-H460; type: cell-based, human; settings: free base, five days
Protocol: as §1

[8] = test system: PrEC primary prostate epithelial cells from normal prostate; assay: Histone-associated DNA fragmentation in PrEC; type: cell-based; settings: 50 μM, up to 4 days
Protocol: as §2

SW-620 (Colon) = assay: Neutral red cytotoxicity assay, SW-620; type: cell-based, human; settings: free base, five days
Protocol: as §1

NCI-H23 (Lung) = assay: Neutral red cytotoxicity assay, NCI-H23; type: cell-based, human; settings: free base, five days
Protocol: as §1

NCI-H82 (Lung) = assay: Neutral red cytotoxicity assay, NCI-H82; type: cell-based, human; settings: free base, five days
Protocol: as §1

MDA-MB-435 (Breast) = assay: Neutral red cytotoxicity assay, MDA-MB-435; type: cell-based, human; settings: free base, five days
Protocol: as §1

With `CC1=C(CC(=O)NCc2ccccc2)c2cc(F)ccc2/C1=C\c1ccncc1` [Compound I, (Z)-5-fluoro-2-methyl-(4-pyridylidene)-3-(N-benzyl)indenylacetamide hydrochloride] the body weight gain (rats [1]; ip, 1000 mg/kg) was “reduced body weight gain”, the body weight gain (rats [1]; po, 4000 mg/kg) was “body weight gains were slightly reduced” and the side effects (patients) was “no significant side effects at any dose”. It also gave an LD50 [2] of over 1000 mg/kg, an LD50 ([3]; ip, 1000 mg/kg) of over 1000 mg/kg and an LD50 ([3]; po) of over 4000 mg/kg. For the same compound, the GI90 (HCT-15 (Colon)) was 3000 nM, the GI90 (UISO-BCA-1 (Breast)) was 4700 nM and the signs of toxicity (rats [4]; 50 mg/kg/day) was “no observable signs of toxicity”. For the same compound, the treatment-related effects (rats [4]; 500 mg/kg/day) was “increase in absolute and relative liver weights in female rats”, the treatment-related effects (rats [4]; 2000 mg/kg/day) was “labored breathing and/or abnormal respiratory sounds, decreased weights gains and food consumption in male rats, and increased liver weights in female rats” and the organ weights (rats [5]; 28 days, 2000 mg/kg/day) was “statistically significant increase in liver weights”. For the same compound, the clinical observations (rats [5]; 28 days, 50, 500 and 2000 mg/kg/day) was “no abnormal clinical observations”, the “histone-associated fragmented DNA” value [6] was “time-dependent increase” and the signs of toxicity (dogs; 1000 mg/kg) was “no signs of toxicity”. For the same compound, the drug-related effects (dogs; 1000 mg/kg/day) was “At no time in either dosing phase were any obvious signs of drug-related effects observed”, the GI90 (HT-29 (Colon)) was 8000 nM and the GI90 (Colo 205 (Colon)) was 2400 nM. For the same compound, the “body weight difference to controls” value [7] was “less than 10%”, the GI90 (DU145 (Prostate)) was 2800 nM and the GI90 (NCI-H460 (Lung)) was 30000 nM. For the same compound, the DNA fragmentation [8] was “did not affect DNA fragmentation”, the GI90 (SW-620 (Colon)) was 2500 nM and the GI90 (NCI-H23 (Lung)) was 2500 nM. For the same compound, the GI90 (NCI-H82 (Lung)) was 5800 nM and the GI90 (MDA-MB-435 (Breast)) was 2300 nM.
